Where a name gives a salt, the structure may show the parent alone.
Assays:
[1] = target: T1, recombinant human plasminogen activator inhibitor-1 (PAI-1) (Homo sapiens, UniProt P05121); assay: Primary Screen for the PAI-1 Inhibition (chromogenic tPA assay); type: biochemical; settings: for IC50: footnote b: determined by a modification of the Primary Screen for PAI-1 Inhibition; for inhibition at 25 µM: 25 μM test compound
T1 construct: purchased Molecular Innovations, Royal Oak, Mich
Method: Primary Screen for the PAI-1 Inhibition
Test compounds are dissolved in DMSO at a final concentration of 10 mM, then diluted 100×in physiologic buffer. The inhibitory assay is initiated by the addition of the test compound (1-100 μM final concentration, maximum DMSO concentration of 0.2%) in a pH 6.6 buffer containing 140 nM recombinant human plasminogen activator inhibitor-1 (PAI-1; Molecular Innovations, Royal Oak, Mich.). Following a 1 hour incubation at room temperature, 70 nM of recombinant human tissue plasminogen activator (tPA) is added, and the combination of the test compound, PAI-1 and tPA is incubated for an additional 30 minutes. Following the second incubation, Spectrozyme-tPA (American Diagnostica, Greenwich, Conn.), a chromogenic substrate for tPA, is added and absorbance read at 405 nm at 0 and 60 minutes. Relative PAI-1 inhibition is equal to the residual tPA activity in the presence of the test compounds and PAI-1. Control treatments include the complete inhibition of tPA by PAI-1 at the molar ratio employed (2:1), and the absence of any effect of the test compound on tPA alone.

human PAI-1 = human PAI-1 (Homo sapiens, UniProt P05121); assay: Assay for determining IC50 of inhibition of PAI-1 (Antibody Assay); type: binding; settings: footnote a: determined by the Antibody Assay; active PAI-1 bound to tPA-coated plate, pH 7.5
Method: Assay for Determining IC50 of Inhibition of PAI-1
This assay is based upon the non-SDS dissociable interaction between tPA and active PAI-1. Assay plates are initially coated with human tPA (10 μg/ml). Test compounds are dissolved in DMSO at 10 mM, then diluted with physiologic buffer (pH 7.5) to a final concentration of 1-50 μM. The test compounds are incubated with human PAI-1 (50 ng/ml) for 15 minutes at room temperature. The tPA-coated plate is washed with a solution of 0.05% Tween 20 and 0.1% BSA, then the plate is blocked with a solution of 3% BSA. An aliquot of the test compound/PAI-1 solution is then added to the tPA-coated plate, incubated at room temperature for 1 hour, and washed. Active PAI-1 bound to the plate is assessed by adding an aliquot of a 1:1000 dilution of the 33B8 monoclonal antibody against human PAI-1, and incubating the plate at room temperature for 1 hour (Molecular Innovations, Royal Oak, Mich.). The plate is again washed, and a solution of goat anti-mouse IgG-alkaline phosphatase conjugate is added at a 1:50,000 dilution in goat serum. The plate is incubated 30 minutes at room temperature, washed, and a solution of alkaline phosphatase substrate is added. The plate is incubated 45 minutes at room temperature, and color development is determined at OD405nm. The quantitation of active PAI-1 bound to tPA at varying concentrations of the test compound is used to determine the IC50. Results are analyzed using a logarithmic best-fit equation. The assay sensitivity is 5 ng/ml of human PAI-1 as determined from a standard curve ranging from 0-100 ng/ml.

T1 sequence (P05121 24-402): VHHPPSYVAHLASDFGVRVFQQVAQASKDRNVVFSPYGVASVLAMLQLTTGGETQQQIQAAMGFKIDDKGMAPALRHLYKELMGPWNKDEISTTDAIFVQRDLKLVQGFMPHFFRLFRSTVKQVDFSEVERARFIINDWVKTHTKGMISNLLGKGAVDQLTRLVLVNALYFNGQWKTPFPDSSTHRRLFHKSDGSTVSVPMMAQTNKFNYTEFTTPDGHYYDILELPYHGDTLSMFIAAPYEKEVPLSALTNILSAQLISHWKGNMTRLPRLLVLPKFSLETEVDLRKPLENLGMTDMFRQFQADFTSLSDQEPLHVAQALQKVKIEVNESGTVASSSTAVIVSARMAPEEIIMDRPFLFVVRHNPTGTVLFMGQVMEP
Sequence of human PAI-1 (P05121 24-402): as above

Structure (SMILES)	melting point	IC50 [1] [µM]	inhibition at 25 µM [1] [%]	IC50 (human PAI-1) [µM]
CCCCC(=O)c1c(-c2ccc3c(-c4ccc(C(F)(F)F)cc4)c(OCC(=O)O)ccc3c2)oc2ccccc12 (as salt: sodium) [Example 15, 2-({6-(3-Pentanoyl-1-benzofuran-2-yl)-1-[4-(trifluoromethyl)phenyl]-2-naphthyl}oxy) acetic acid, sodium salt]	274 to 275 °C (dec.)			
CCCCC(=O)c1c(-c2ccc3c(Br)c(OCc4nnn[nH]4)ccc3c2)oc2ccccc12 [Example 1, 1-{2-[5-Bromo-6-(1H-1,2,3,4-tetraazol-5-ylmethoxy)-2-naphthyl]-1-benzofuran-3-yl}-1-pentanone]		7.7		
CCCCC(=O)c1c(-c2ccc3cc(OCC(=O)O)ccc3c2)oc2ccccc12 [Example 2, 2-{[6-(3-pentanoyl-1-benzofuran-2-yl)-2-naphthyl]oxy}acetic acid]	130 to 132 °C		43	
CCCCC(=O)c1c(-c2ccc3cc(OCc4nnn[nH]4)ccc3c2)oc2ccccc12 [Example 3, 1-{2-[6-(1H-1,2,3,4-Tetraazol-5-ylmethoxy)-2-naphthyl]-1-benzofuran-3-yl}-1-pentanone]	150 to 151 °C	12.7		
CCCCC(=O)c1c(-c2ccc3cc(OC(Cc4ccccc4)C(=O)O)ccc3c2)oc2ccccc12 (stereo not drawn) [Example 4, 2-{[6-(3-Pentanoyl-1-benzofuran-2-yl)-2-naphthyl]oxy}-3-phenylpropanoic acid]	144 to 145 °C			16.6
CCCCC(=O)c1c(-c2ccc3c(Br)c(OCC(=O)O)ccc3c2)oc2ccccc12 [Example 5, 2-{[1-Bromo-6-(3-pentanoyl-1-benzofuran-2-yl)-2-naphthyl]oxy}acetic acid]	146 to 147 °C		47	
CC(C)(C)CC(=O)c1c(-c2ccc3cc(OCC(=O)O)ccc3c2)oc2ccccc12 [Example 6, 2-({6-[3-(3,3-Dimethylbutanoyl)-1-benzofuran-2-yl]-2-naphthyl}oxy)acetic acid]	207 to 209 °C			8.7
CC(C)CC(=O)c1c(-c2ccc3c(Br)c(OCC(=O)O)ccc3c2)oc2ccccc12 [Example 7]		14.7		
CC(C)CC(=O)c1c(-c2ccc3cc(OCC(=O)O)cc(Br)c3c2)oc2ccccc12 [Example 7]	140 to 142 °C			
CC(C)(C)CC(=O)c1c(-c2ccc3c(Br)c(OCC(=O)O)ccc3c2)oc2ccccc12 [Example 8, 2-({1-Bromo-6-[3-(3,3-dimethylbutanoyl)-1-benzofuran-2-yl]-2-naphthyl}oxy)acetic acid]	151 to 153 °C	11.9		
CC(C)CC(=O)c1c(-c2ccc3c(Br)c(OCc4nnn[nH]4)ccc3c2)oc2ccccc12 [Example 9, 1-{2-[5-Bromo-6-(1H-1,2,3,4-tetraazol-5-ylmethoxy)-2-naphthyl]-1-benzofuran-3-yl}-3-methyl-1-butanone]	176 to 177 °C			18.7
O=C(O)COc1ccc2cc(-c3oc4ccccc4c3C(=O)CC3CCCC3)ccc2c1 [Example 10, 2-({6-[3-(2-Cyclopentylacetyl)-1-benzofuran-2-yl]-2-naphthyl}oxy)acetic acid]	177 to 178 °C			
O=C(O)COc1ccc2cc(-c3oc4ccccc4c3CCC3CCCC3)ccc2c1Br [Example 11, 2-({1-Bromo-6-[3-(2-cyclopentylethyl)-1-benzofuran-2-yl]-2-naphthyl}oxy)acetic acid]	155 to 156 °C		24	
Brc1c(OCc2nnn[nH]2)ccc2cc(-c3oc4ccccc4c3CCC3CCCC3)ccc12 [Example 12, 5-[({1-Bromo-6-[3-(2-cyclopentylethyl)-1-benzofuran-2-yl]-2-naphthyl}oxy)methyl]-1H-1,2,3,4-tetraazole]	192 to 194 °C			
O=C(CC1CCCC1)c1c(-c2ccc3c(Br)c(OCc4nnn[nH]4)ccc3c2)oc2ccccc12 [Example 13, 1-{2-[5-Bromo-6-(1H-1,2,3,4-tetraazol-5-ylmethoxy)-2-naphthyl]-1-benzofuran-3-yl}-2-cyclopentyl-1-ethanone]	186 to 187 °C			10.1
CCCCC(=O)c1c(-c2ccc3c(-c4ccc(C(F)(F)F)cc4)c(OCC(=O)O)ccc3c2)oc2ccccc12 [Example 15, 2-({6-(3-Pentanoyl-1-benzofuran-2-yl)-1-[4-(trifluoromethyl)phenyl]-2-naphthyl}oxy) acetic acid, sodium salt]				8.2
CCCCC(=O)c1c(-c2ccc3c(-c4ccc(C(F)(F)F)cc4)c(OCc4nnn[nH]4)ccc3c2)oc2ccccc12 [Example 18, 1-(2-{6-(1H-1,2,3,4-Tetraazol-5-ylmethoxy)-5-[4-(trifluoromethyl)phenyl]-2-naphthyl}-1-benzofuran-3-yl)-1-pentanone]	189 to 191 °C	6		
CCCCC(=O)c1c(-c2ccc3c(Br)c(OC(Cc4ccccc4)C(=O)O)ccc3c2)oc2ccccc12 (stereo not drawn) [Example 19, 2-{[1-Bromo-6-(3-pentanoyl-1-benzofuran-2-yl)-2-naphthyl]oxy}-3-phenylpropanoic acid]	115 to 117 °C	6.2		
CCCCCc1c(-c2ccc3c(C)c(OCc4nnn[nH]4)ccc3c2)oc2ccccc12 [Example 21, 5-({[1-Methyl-6-(3-pentyl-1-benzofuran-2-yl)-2-naphthyl]oxy}methyl)-1H-1,2,3,4-tetraazole]	169 to 171 °C (dec.)		31	
O=C(O)COc1ccc2cc(-c3oc4ccccc4c3C(=O)c3ccccc3)ccc2c1 [Example 26, {[6-(3-benzoyl-1-benzofuran-2-yl)-2-naphthyl]oxy}acetic acid]	178 to 181 °C		49	
O=C(c1ccccc1)c1c(-c2ccc3c(Br)c(OCc4nnn[nH]4)ccc3c2)oc2ccccc12 [Example 27, {2-[5-Bromo-6-(1H-tetraazol-5-ylmethoxy)-2-naphthyl]-1-benzofuran-3-yl}(phenyl) methanone]	> 183 °C (dec.)		35	
O=C(O)C(Cc1ccccc1)Oc1ccc2cc(-c3oc4ccccc4c3Br)ccc2c1Br (stereo not drawn) [Example 28, 2-{[1-Bromo-6-(3-bromo-1-benzofuran-2-yl)-2-naphthyl]oxy}-3-phenylpropanoic acid]	206 to 209 °C		56	
CCCCC(=O)c1c(-c2ccc3c(Br)c(OCc4nnn[nH]4)ccc3c2)oc2ccc(Cl)cc12 [Example 30, 1-{2-[5-Bromo-6-(1H-tetrazol-5-ylmethoxy)-naphthalen-2-yl]-5-chloro-benzofuran-3-yl}-pentan-1-one]	133 to 135 °C		46	
CCCCC(=O)c1c(-c2ccc3c(Br)c(OCC(=O)O)ccc3c2)oc2ccc(Cl)cc12 [Example 31, [1-Bromo-6-(5-chloro-3-pentanoyl-benzofuran-2-yl)-naphthalen-2-yloxy]-acetic acid]	130 to 132 °C	17.1		
CCCCC(=O)c1c(-c2ccc3cc(OCc4nnn[nH]4)ccc3c2)oc2ccc(Cl)cc12 [Example 32, 1-{5-Chloro-2-[6-(1H-tetrazol-5-ylmethoxy)-naphthalen-2-yl]-benzofuran-3-yl}-pentan-1-one]	178 to 180 °C		39	
CCCCC(=O)c1c(-c2ccc3cc(OCC(=O)O)ccc3c2)oc2ccc(Cl)cc12 [Example 33, [6-(5-Chloro-3-pentanoyl-benzofuran-2-yl)-naphthalen-2-yloxy]-acetic acid]	158 to 160 °C	10.4		
CCCCCc1c(-c2ccc3cc(OCC(=O)O)ccc3c2)oc2ccccc12 [Example 35, [6-(3-Pentyl-benzofuran-2-yl)-naphthalen-2-yloxy]-acetic acid]	163 to 165 °C	4.39		
CCCCCc1c(-c2ccc3c(Br)c(OCc4nn[nH]n4)ccc3c2)oc2ccccc12 [Example 37]		4.59		
